In one assay the target is T1, VIPR2 (Homo sapiens, UniProt P41587).
T1 construct: expressed in transfected cells
T1 sequence (P41587 24-438): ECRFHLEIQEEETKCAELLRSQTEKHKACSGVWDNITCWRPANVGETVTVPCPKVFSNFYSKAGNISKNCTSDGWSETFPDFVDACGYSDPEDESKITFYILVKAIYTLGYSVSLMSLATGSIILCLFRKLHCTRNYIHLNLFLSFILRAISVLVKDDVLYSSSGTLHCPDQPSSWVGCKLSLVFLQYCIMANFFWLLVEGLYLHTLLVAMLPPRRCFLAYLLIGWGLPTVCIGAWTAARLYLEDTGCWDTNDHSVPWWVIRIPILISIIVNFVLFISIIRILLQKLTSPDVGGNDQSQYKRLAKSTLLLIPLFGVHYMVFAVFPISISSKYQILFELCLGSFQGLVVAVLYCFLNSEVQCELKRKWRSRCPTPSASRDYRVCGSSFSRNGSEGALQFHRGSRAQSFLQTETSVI
In words: BRET-based VIPR2 activation assay (CAMYEL cAMP sensor, CHO cells, VIP background). The note with it: compared with Compound 1 or other compounds (FIG. 1C, FIG. 5B). In kind it is cell-based. The protocol:
FIG. 5A-B. Results of BRET-based VIPR2 activation assays in cells expressing both the VIPR2 receptor and CAMYEL (see FIG. 1A for schematic). a) Inhibitory dose-response curves on treatment of CHO cells with increasing concentrations of a batch of antagonists against a background of VIP activation (VIP=5 nM).
In such a system, a detector cell is used which expresses both the VIPR2 receptor and “CAMYEL,” a YFP-Epac-RLuc8 BRET sensor construct. This construct includes Epac1, a guanine nucleotide exchange factor activated by direct binding of cAMP, fused with an enhanced YFP and Renilla luciferase 8 (Rluc8) allowing BRET upon cAMP-induced conformational changes (Jiang et al., 2007, J Biol Chem. 282:10576-10584). In response to elevated cAMP levels, there is a conformational change in Epac and therefore a change in the proximity of the fused chromophores, Rluc8 and YFP, resulting in measurable energy transfer. Coexpression of this BRET construct with VIPR2. optionally tagged at the N-terminus with a signal peptide and FLAG epitope (SF-VIPR2), for example in HEK293 cells, allows for detection of a VIPR2-specific response to cAMP. BRET readout may be calculated by quantifying the ratio of the light emitted by the acceptor, YFP (λ=525 nm), over the emission from the donor, RLuc8 (λ=485 nm). The proximity of the donor and acceptor, and therefore the BRET ratio, decreases in the presence of cAMP. In non-limiting specific embodiments, a stable cell line may be generated for this assay using the Flp-In T-Rex system in HEK293 cells. This system allows site-specific single copy integration of the gene of interest and control of expression levels using the Tet-repressor site making receptor expression tetracycline-inducible. For example, a CAMYEL and VIPR2 expressing line may be induced with 0.01 μg/ml tetracycline, then, 24 hours later cells may be collected and distributed into 96-well plates. After treatment with candidate inhibitor compound, for example at 5, 1 and 0.5 μM concentrations, cells may be incubated with the light emitting luciferin, coelenterazine H, for 5 min and incubated for 5 min with VIP at increasing concentrations, for example ranging from 100 pM to 10 μM. The fluorescence and luminescence may then be quantified, for example using a PHERAstar (BMG) plate reader. […] Alternatively, analogous experiments may be performed using human cells harvested from a patient having a VIPR2 copy number variation, for example (but not by way of limitation) pluripotent stem cells prepared from such a patient and then transfected with a CAMYEL construct.
A series of compounds were prepared using a synthetic method analogous to that set forth in Scheme 1, above, and then tested for their ability to inhibit VIP-induced cAMP elevation and β-arrestin recruitment, as described herein (Discoverx Corporation, Fremont, Calif., US). Compound activities were also tested in a BRET-based assay, as described herein. The results are shown below in Tables 1-4, above.
Numerous cellular assays were developed that were able to detect VIP responses absent of interference from non-specific vasopressin receptors using this CHO based system. VIPR2 is a Gs coupled receptor. Activation of VIPR2 by VIP leads to both an elevation in cAMP signaling and the recruitment of β-arrestin. A variety of combinations can be transiently transfect into these CHO cells for the assessment of cellular responses to VIP. For the BRET readout CHO cell lines expressing an YFP-Epac-RLuc8 (CAMYEL) BRET sensor were used to detect changes in cAMP. This construct includes Epac1, a guanine nucleotide exchange factor activated by direct binding of cAMP, fused to an enhanced YFP and RLuc8 allowing a change in BRET upon cAMP-induced conformational changes. The key for medium to high throughput screening assays is the use of stable cell lines allowing the continuous assaying of multiple compounds with the ability to generate large numbers of cells for rapid use. […]
(In BRET a luciferase serves as donor, and the signal depends on an acceptor being close.)

The target of the next assay is T2, hVIPR1 (Homo sapiens, UniProt P32241).
T2 construct: expressed in transfected cells; host or cells: transient transfection with CAMYEL
T2 sequence (P32241 31-457): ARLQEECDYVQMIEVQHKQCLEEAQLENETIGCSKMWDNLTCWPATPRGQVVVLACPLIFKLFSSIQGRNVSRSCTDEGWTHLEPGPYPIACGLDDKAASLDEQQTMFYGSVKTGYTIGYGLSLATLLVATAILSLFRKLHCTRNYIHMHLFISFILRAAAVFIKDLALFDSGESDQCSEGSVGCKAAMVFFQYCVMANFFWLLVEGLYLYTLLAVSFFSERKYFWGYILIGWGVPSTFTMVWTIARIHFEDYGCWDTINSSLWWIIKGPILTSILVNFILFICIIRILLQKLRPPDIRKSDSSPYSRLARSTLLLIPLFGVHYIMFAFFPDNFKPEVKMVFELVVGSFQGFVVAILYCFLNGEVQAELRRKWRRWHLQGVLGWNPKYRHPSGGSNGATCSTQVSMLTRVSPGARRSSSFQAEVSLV
Description: CAMYEL BRET cAMP assay in transient cell lines expressing hVIPR1. Format: cell-based. The note with it: transient cell lines expressing hVIPR1 and CAMYEL (FIG. 7). An excerpt:
These assays are now being used for reliable and rapid quantification of VIPR2 responses to various antagonists under development for this receptor. This assay can also be used to evaluate agonists to VIPR2 and allosteric compounds, in addition to addresing the functional selectivity of different compounds, as it is possible to address multiple pathways effected by modulation of VIPR2 using this second messenger detection systems (cAMP and β-arrestin). This cellular assay for the detection of […] is applicable to multiple members of the […]. To this end lines were also developed expressing CAMYEL together with VIPR1 and PACAP1R (both the human and mouse forms) using transient transfection. This allows for the confirmation of specificity of novel antagonists to the VIPR2 receptor in addition to providing the ability to assay VIPR1 and PACAPR1 antagonists, agonists and allosteric modulators. […] These assays allow assays of VIPR2 antagonist, agonists and other compounds acting at […] in a specific, selective, rapid and medium to high throughput manner.

As for `CC(=O)c1ccc(S(=O)(=O)NC[C@@H](O)C[C@@H](Cc2ccccc2)C(=O)N[C@H]2c3ccccc3C[C@H]2O)cc1` [K], the “VIPR2 inhibition in BRET-based assay, in words” value at VIPR2 is on record as “significantly improved activity as an antagonist at VIPR2”. For the same molecule, at hVIPR1, the “specificity for VIPR2 over hVIPR1” value is on record as “VIPR2 specificity”.

Source of the values: patent US20150241410A1, “INHIBITORS OF CENTRAL NERVOUS SYSTEM VASOACTIVE INHIBITORY PEPTIDE RECEPTOR 2” (The Trustees Of Columbia University In The City Of New York, priority 2012, published 2015).
